Laboratory results: publication PMC11364543, “Molecular recognition of an odorant by the murine trace amine-associated receptor TAAR7f” (Nature Communications, 2024)

Molecular target: T1, mTAAR7f (Mus musculus, UniProt Q5QD08)
T1 construct: gene Taar7f; full length; N-terminal signal peptide, twin-strep and SNAP-tag, C-terminal nanoluc; BRET partner NES-Venus-mini-Gs (reporter)
T1 sequence (Q5QD08 1-358): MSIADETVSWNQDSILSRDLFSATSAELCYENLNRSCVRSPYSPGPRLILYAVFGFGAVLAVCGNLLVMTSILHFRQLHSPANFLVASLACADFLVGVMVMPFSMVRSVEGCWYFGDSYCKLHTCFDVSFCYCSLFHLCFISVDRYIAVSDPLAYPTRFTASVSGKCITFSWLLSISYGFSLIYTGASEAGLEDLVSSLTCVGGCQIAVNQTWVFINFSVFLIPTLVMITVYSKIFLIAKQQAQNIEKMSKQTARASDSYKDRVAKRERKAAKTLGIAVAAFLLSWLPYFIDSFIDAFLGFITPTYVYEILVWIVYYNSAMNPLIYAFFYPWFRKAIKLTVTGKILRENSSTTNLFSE
Experiment: BRET mini-Gs recruitment (nanoluc receptor, NES-Venus-mGs), concentration-response
Format: cell-based
Excerpt: BRET mini-Gs recruitment (nanoluc receptor, NES-Venus-mGs), concentration-response on mTAAR7f | BRET ratios measured for increasing concentrations of the agonist DMCHA for the wild-type mTAAR7f

Structure (SMILES): CN(C)C1CCCCC1 [N,N-dimethylcyclohexylamine]
- EC50: 8.51 µM
